Reference: ChEMBL document CHEMBL2440027, “Further SAR studies on bicyclic basic merbarone analogues as potent antiproliferative agents” (Bioorg Med Chem, 2013)

Assays:
SK-OV-3 = experiment: Growth inhibition of human SKOV3 cells assessed as cell growth at 10 uM after 48 hrs by sulforhodamine B assay relative to control; format: functional; conditions: SK-OV-3, 48 h, read-out: Activity
LOX IMVI = experiment: Growth inhibition of human LOXIMVI cells assessed as cell growth at 10 uM after 48 hrs by sulforhodamine B assay relative to control; format: functional; conditions: read-out: Activity
SW-620 = experiment: Growth inhibition of human SW620 cells assessed as cell growth at 10 uM after 48 hrs by sulforhodamine B assay relative to control; format: functional; conditions: SW-620, 48 h, read-out: Activity
NCI-H23 = experiment: Growth inhibition of human NCI-H23 cells assessed as cell growth at 10 uM after 48 hrs by sulforhodamine B assay relative to control; format: functional; conditions: NCI-H23, 48 h, read-out: Activity
[1] = Growth inhibition of human EKVX cells assessed as cell growth at 10 uM after 48 hrs by sulforhodamine B assay relative to control; format: functional; conditions: read-out: Activity
SR [2] = experiment: Growth inhibition of human SR cells assessed as cell growth at 10 uM after 48 hrs by sulforhodamine B assay relative to control; format: functional; conditions: read-out: Activity
HeLa = experiment: Cytotoxicity against human HeLa cells; format: functional, cell-based; conditions: Homo sapiens, HeLa
MCF7 = experiment: Cytotoxicity against human MCF7 cells; format: functional, cell-based
[3] = target: DNA topoisomerase 2-alpha (Homo sapiens, UniProt P11388); experiment: Inhibition of human topoisomerase 2alpha-mediated relaxation of supercoiled pBR322 after 1 hr by ethidium bromide staining
MDA-MB-468 = experiment: Growth inhibition of human MDA-MB-468 cells after 48 hrs by sulforhodamine B assay; format: functional; conditions: MDA-MB-468, 48 h
T47D [4] = experiment: Growth inhibition of human T47D cells after 48 hrs by sulforhodamine B assay; format: functional
DU-145 [5] = experiment: Growth inhibition of human DU145 cells after 48 hrs by sulforhodamine B assay; format: functional; conditions: DU-145, 48 h; for CC50: read-out: LC50 (the source's name)
PC-3 = experiment: Growth inhibition of human PC3 cells after 48 hrs by sulforhodamine B assay; format: functional; conditions: PC-3, 48 h
RXF 393 [6] = experiment: Growth inhibition of human RXF393 cells after 48 hrs by sulforhodamine B assay; format: functional; conditions: RXF 393, 48 h; for CC50: read-out: LC50 (the source's name)
SK-MEL-5 = experiment: Growth inhibition of human SK-MEL-5 cells after 48 hrs by sulforhodamine B assay; format: functional; conditions: SK-MEL-5, 48 h
SR [7] = experiment: Growth inhibition of human SR cells after 48 hrs by sulforhodamine B assay; format: functional
T47D [8] = experiment: Growth inhibition of human T47D cells assessed as cell growth at 10 uM after 48 hrs by sulforhodamine B assay relative to control; format: functional; conditions: read-out: Activity
MDA-MB-231 = experiment: Growth inhibition of human MDA-MB-231 cells assessed as cell growth at 10 uM after 48 hrs by sulforhodamine B assay relative to control; format: functional; conditions: MDA-MB-231, 48 h, read-out: Activity
DU-145 [9] = experiment: Growth inhibition of human DU145 cells assessed as cell growth at 10 uM after 48 hrs by sulforhodamine B assay relative to control; format: functional; conditions: DU-145, 48 h, read-out: Activity
RXF 393 [10] = experiment: Growth inhibition of human RXF393 cells assessed as cell growth at 10 uM after 48 hrs by sulforhodamine B assay relative to control; format: functional; conditions: RXF 393, 48 h, read-out: Activity
HOP-92 = experiment: Growth inhibition of human HOP92 cells assessed as cell growth at 10 uM after 48 hrs by sulforhodamine B assay relative to control; format: functional; conditions: HOP-92, 48 h, read-out: Activity

Chain of DNA topoisomerase 2-alpha (P11388 whole entry): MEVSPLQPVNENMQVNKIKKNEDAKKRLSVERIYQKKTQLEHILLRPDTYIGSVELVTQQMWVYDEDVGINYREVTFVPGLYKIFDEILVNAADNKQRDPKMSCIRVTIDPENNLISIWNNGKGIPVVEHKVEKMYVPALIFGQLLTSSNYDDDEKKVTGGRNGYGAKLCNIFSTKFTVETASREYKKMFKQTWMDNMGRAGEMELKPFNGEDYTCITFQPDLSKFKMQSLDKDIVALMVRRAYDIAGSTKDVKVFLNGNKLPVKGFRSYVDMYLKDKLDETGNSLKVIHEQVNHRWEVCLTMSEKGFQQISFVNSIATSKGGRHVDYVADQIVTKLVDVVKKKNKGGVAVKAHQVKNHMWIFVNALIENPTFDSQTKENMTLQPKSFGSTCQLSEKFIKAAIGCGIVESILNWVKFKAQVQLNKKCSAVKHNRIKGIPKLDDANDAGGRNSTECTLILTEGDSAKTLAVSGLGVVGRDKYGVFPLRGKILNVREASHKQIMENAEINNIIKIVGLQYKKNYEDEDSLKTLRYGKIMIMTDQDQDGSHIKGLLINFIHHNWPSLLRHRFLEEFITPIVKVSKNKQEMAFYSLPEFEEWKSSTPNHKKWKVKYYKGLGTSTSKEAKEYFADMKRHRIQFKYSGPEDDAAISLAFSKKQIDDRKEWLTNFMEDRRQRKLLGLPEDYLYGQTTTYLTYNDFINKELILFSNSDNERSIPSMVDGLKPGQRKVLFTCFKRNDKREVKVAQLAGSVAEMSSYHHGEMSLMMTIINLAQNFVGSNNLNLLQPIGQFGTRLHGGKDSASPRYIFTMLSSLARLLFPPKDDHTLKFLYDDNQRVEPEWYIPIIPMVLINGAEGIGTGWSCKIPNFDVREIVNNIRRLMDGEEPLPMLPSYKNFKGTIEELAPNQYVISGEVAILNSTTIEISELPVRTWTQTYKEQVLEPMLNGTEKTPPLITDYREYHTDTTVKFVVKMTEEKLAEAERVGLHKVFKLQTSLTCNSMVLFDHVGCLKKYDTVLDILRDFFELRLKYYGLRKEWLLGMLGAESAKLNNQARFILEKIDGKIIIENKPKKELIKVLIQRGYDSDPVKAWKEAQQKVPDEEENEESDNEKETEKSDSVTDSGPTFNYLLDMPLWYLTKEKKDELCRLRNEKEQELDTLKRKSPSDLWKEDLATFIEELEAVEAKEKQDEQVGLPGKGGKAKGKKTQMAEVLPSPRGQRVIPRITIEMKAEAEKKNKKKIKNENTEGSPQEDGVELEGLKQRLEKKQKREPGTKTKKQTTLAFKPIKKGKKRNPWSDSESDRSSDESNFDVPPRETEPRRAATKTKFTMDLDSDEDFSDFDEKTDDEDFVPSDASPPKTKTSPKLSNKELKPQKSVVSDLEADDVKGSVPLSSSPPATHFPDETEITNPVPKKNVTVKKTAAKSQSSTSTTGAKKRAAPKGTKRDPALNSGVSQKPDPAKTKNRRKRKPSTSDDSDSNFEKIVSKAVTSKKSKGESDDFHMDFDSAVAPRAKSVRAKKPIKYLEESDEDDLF

| Compound | growth at 10 µM (SK-OV-3) [%] | growth at 10 µM (LOX IMVI) [%] | growth at 10 µM (SW-620) [%] | growth at 10 µM (NCI-H23) [%] | growth at 10 µM [1] [%] | growth at 10 µM (SR [2]) [%] | GI50 (MDA-MB-468) [µM] | LC50 (concentration killing 50% of cells) (MDA-MB-468) [µM] | TGI (MDA-MB-468) [µM] | GI50 (T47D [4]) [µM] | LC50 (T47D [4]) [µM] | TGI (T47D [4]) [µM] | GI50 (DU-145 [5]) [µM] | TGI (DU-145 [5]) [µM] | CC50 (DU-145 [5]) [µM] | GI50 (PC-3) [µM] | LC50 (50% lethal concentration) (PC-3) [µM] | TGI (PC-3) [µM] | GI50 (RXF 393 [6]) [µM] | TGI (RXF 393 [6]) [µM] | also measured |
| --- | --- | --- | --- | --- | --- | --- | --- | --- | --- | --- | --- | --- | --- | --- | --- | --- | --- | --- | --- | --- | --- |
| CN(C)CCNc1nc2c(c(=N)n1-c1ccccc1)c(=S)n(-c1ccccc1)c(=S)n2-c1ccccc1 | 76.3 | -61.4 | -59.1 | 67.6 | 39.8 | 34.7 | 1.2 | 6 | 2.7 | 2.1 | 30.5 | 5.4 | 5.3 | 18.8 | 48.8 | 4 | 51.9 | 17.9 | 1.2 | 3.1 | IC50 (HeLa): 12.6 µM; IC50 (MCF7): 16 µM; IC50 [3]: > 100 µM; CC50 (RXF 393 [6]): 8.1 µM; GI50 (SK-MEL-5): 1.6 µM; LC50 (SK-MEL-5): 6.1 µM; TGI (SK-MEL-5): 3.1 µM; GI50 (SR [7]): 1.4 µM; LC50 (SR [7]): 8.2 µM; TGI (SR [7]): 3.3 µM; growth at 10 µM (T47D [8]): -19.4%; growth at 10 µM (MDA-MB-231): -13%; growth at 10 µM (DU-145 [9]): 45%; growth at 10 µM (RXF 393 [10]): -39.1% |
| CCCCN(CCCC)CCCNc1nc2c(c(=N)n1-c1ccccc1)c(=S)n(-c1ccccc1)c(=S)n2-c1ccccc1 | -86.5 | -89.7 | -100 | -56.3 | -74.2 | -65.2 | 0.2 | 0.6 | 0.3 | 0.2 | 8.3 | 0.5 | 1.1 | 2.3 | 4.8 | 0.6 | 4.6 | 1.9 | 0.2 | 0.5 | growth at 10 µM (HOP-92): -66.9%; CC50 (RXF 393 [6]): 36.8 µM; GI50 (SK-MEL-5): 0.9 µM; LC50 (SK-MEL-5): 4.6 µM; TGI (SK-MEL-5): 2.1 µM; GI50 (SR [7]): 0.3 µM; LC50 (SR [7]): 7 µM; TGI (SR [7]): 1.5 µM; growth at 10 µM (T47D [8]): -62.1%; growth at 10 µM (MDA-MB-231): -89.1%; growth at 10 µM (DU-145 [9]): -100%; growth at 10 µM (RXF 393 [10]): -67.7% |
